The values below come from publication PMC8778678 (Viruses, 2022).

Series [1] in a line: in vitro. Particulars: African green monkey, CC50 (half-maximal cytotoxic concentration).
A further series deals with Vero E6 cells. The following applies: African green monkey.
Series [2] has as its system SARS-CoV-2 IHUMI-6 strain. The class given is cell-based. Particulars: Vero E6 cells, according to the strain used.
The next series has as its system cathepsin L (CTSL). Set-up: method as in ref 16, 33 = [16]. The following applies: cited from earlier work.
The test system of the next series is cathepsin B (CTSB). Set-up: method as in ref 16, 33 = [16]. Particulars: cited from earlier work.
Series [3] concerns SARS-CoV-2 hCoV-19_IPL_France strain. The series is classed as cell-based. The following applies: Vero E6-TMPRSS2 cells, MOI 0.025, 16 h, increasing doses.
The test system is the same in series [4]. The series is classed as cell-based. The following applies: wild-type Vero E6 cells, MOI 0.025, 16 h, increasing doses.
In series [5] the test system is SARS-CoV-2-infected Vero E6 cells. The class given is cell-based. The following applies: 4 µM, 2 h, then IHUMI-6 infection 24 h.
Series [6] has as its system autophagic flux in Vero E6 cells. Put plainly: Western blot of autophagy markers LC3-II and p62 with or without Baf A1. Particulars: uninfected Vero E6 cells, 24 h, with or without Baf A1 for the last 4 h, normalized to GAPDH. The series is classed as cell-based, African green monkey. On the technique in general: A western blot detects proteins with antibodies after separation by electrophoresis.

For series [7], the system named is SARS-CoV-2-infected Vero E6 cells. Put plainly: Immunofluorescence assays. The following applies: IHUMI-6, MOI 0.1, 48 h post-infection, versus infected untreated, p = 0.03. The series is classed as cell-based, African green monkey.
The subject of series [8] is SARS-CoV-2 IHUMI-6 strain. Put plainly: microbe, parasite or virus in culture. The class given is cell-based.
For series [9], the system named is SARS-CoV-2 BetaCoV/France/IDF0372/2020 strain. Also on record: species or system K18-hACE2 mouse. Particulars: mouse, in vivo.
Series [10] is described as follows: in vitro. Particulars: human.
The next series deals with SARS-CoV-2. Set-up: method as in ref 28 = [28]. Particulars: Vero E6 system; read-out: EC50, SARS-CoV-2 cytopathic effect; cited from earlier work. In general terms: Protection from cytopathic effect is a common read-out in antiviral testing.

Entries after “also recorded” stand apart in the source; their conditions may differ. Where two headings read alike, the source gives them in different places.

As for `CCN(CC)CCCC(C)Nc1ccnc2cc(Cl)ccc12` (centres unmarked) [Chloroquine, chloroquine], the CC50 in “in vitro [1]” and in the series with Vero E6 cells was 73.2 µM throughout.
A word on the EC50: it is the midpoint of the concentration-response curve. As to `CC(C)(C)NC1CCN(c2cc(NCc3ccc(Cl)cc3)nc3ccccc23)CC1` [GNS561, Ezurpimtrostat], the “inhibitory concentration relative to remdesivir” value in series [2] is recorded as 50.5–200 times. For the same molecule, in the series with cathepsin L (CTSL), the “enzymatic activity of cathepsin L” value is “significantly impair”. For the same molecule, the “enzymatic activity of cathepsin B” value with cathepsin B (CTSB) is “significantly impair”. Further, the “SARS-CoV-2 N protein level compared to untreated” value in [3] is given as “did not alter the N protein level”. In addition, the “SARS-CoV-2 N protein level compared to untreated” value in series [4] is “did not alter the N protein level”. In series [5], the “volume (area) of autophagic vacuoles in the cytoplasm” value is given as “increase in the volume of autophagic vacuoles”. Moreover, in series [6], the “Normalized LC3-II protein expression” value is recorded as “increased in a dose-dependent manner” and the p62 protein level result was “The same observation”. Moreover, the “LC3B signal (LC3B clusters)” value in series [7] is given as “enhanced”. Moreover, the selectivity index entry in [8] is “moderate”. For the same molecule, the EC50 in series [8] (Severe acute respiratory syndrome coronavirus 2, in Homo sapiens, human lung Calu-3 cells, IHUMI-6 strain, 48 h, read-out: EC50 antiviral activity) is 1.1 µM. Besides, in series [9], the “lung SARS-CoV-2 viral load” value is on record as “decline in SARS-CoV-2 virions in the lungs; also recorded: downward trend; also recorded: moderate” and the “lung tissue ultrastructure (autophagic vacuoles, multilamellar bodies)” value is given as “autophagic vacuole accumulation with increased electron density”. Besides, the CC50 at 48 h in the series “in vitro [10]” came to 4.6 µM.
Turning to `Cc1ccc(NCCN(C)CCNc2ccnc3cc(Cl)ccc23)c2c(=O)c3ccccc3sc12` [ROC-325], in the series with SARS-CoV-2, the EC50 is 3.28 µM.
